Article PMC6274368 (Molecules, 2016)

What was measured:
human URAT1 = biological target: T1, human URAT1 (Homo sapiens, UniProt Q96S37); settings: for Fold more potent than parent lesinurad (URAT1 inhibition): ratio of IC50 vs lesinurad, in vitro URAT1 inhibitory assay
T1 sequence (Q96S37 1-553): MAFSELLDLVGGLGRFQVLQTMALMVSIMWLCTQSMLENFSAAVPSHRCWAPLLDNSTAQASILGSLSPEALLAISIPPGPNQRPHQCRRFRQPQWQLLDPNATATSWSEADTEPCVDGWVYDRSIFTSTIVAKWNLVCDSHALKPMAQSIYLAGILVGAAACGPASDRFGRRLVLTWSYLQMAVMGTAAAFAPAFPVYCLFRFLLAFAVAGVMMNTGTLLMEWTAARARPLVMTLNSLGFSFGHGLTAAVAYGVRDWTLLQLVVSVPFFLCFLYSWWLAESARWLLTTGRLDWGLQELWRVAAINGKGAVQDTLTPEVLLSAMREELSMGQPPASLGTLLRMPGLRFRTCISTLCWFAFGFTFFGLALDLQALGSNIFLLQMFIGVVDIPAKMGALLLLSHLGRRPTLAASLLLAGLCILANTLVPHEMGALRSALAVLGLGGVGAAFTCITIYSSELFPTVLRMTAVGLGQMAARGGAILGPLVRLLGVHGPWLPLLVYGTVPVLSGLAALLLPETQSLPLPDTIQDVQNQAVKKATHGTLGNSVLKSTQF
Protocol: After 48 h, when the HEK293-URAT1 cells were grown to confluence, the cells were treated by 0.25% trypsin for 1–2 min. Thereafter, the digested cells were diluted to a density of 1.5 × 10^5/mL and inoculated into the 24-well cell culture plates for about 48 h. The HEK293-URAT1 cells were pre-incubated for 10 min in HBSS (Cl^− free) and then incubated in the uptake solution (PBS) containing 5 μM [8-^14C]uric acid (2 μCi/mL) with or without the tested compounds (at a series of concentrations). […] After that, 500 μL of cell lysis was transferred to scintillation vials and solubilized with scintillation solution. The radioactivity in the cells was measured by a liquid scintillation counter (PerkinElmer, Waltham, MA, USA).

Row | SMILES | melting point | IC50 (human URAT1) | Fold more potent than parent lesinurad (URAT1 inhibition) (human URAT1)
1 | O=C([O-])CCc1nncn1-c1ccc(C2CC2)c2ccccc12.[Na+] [Compound 1a, Sodium 3-(4-(4-cyclopropylnaphth-1-yl)-4H-1,2,4-triazol-3-yl)propionate] | 140 °C (dec.) | > 100 µM | 
2 | O=C([O-])CCc1nnc(Cl)n1-c1ccc(C2CC2)c2ccccc12.[Na+] [Compound 1b, Sodium 3-(5-chloro-4-(4-cyclopropylnaphth-1-yl)-4H-1,2,4-triazol-3-yl)propionate] | 135 °C (dec.) | 6.3 ± 0.74 µM | 
3 | O=C([O-])CCc1nnc(Br)n1-c1ccc(C2CC2)c2ccccc12.[Na+] [Compound 1c, Sodium 3-(5-bromo-4-(4-cyclopropylnaphth-1-yl)-4H-1,2,4-triazol-3-yl)propionate] |  | 2.4 ± 0.15 µM | three
4 | O=C([O-])CCc1nnc(I)n1-c1ccc(C2CC2)c2ccccc12.[Na+] [Compound 1d, Sodium 3-(4-(4-cyclopropylnaphth-1-yl)-5-iodo-4H-1,2,4-triazol-3-yl)propionate] | 158 °C (dec.) | 8.8 ± 1 µM | 
5 | COc1nnc(CCC(=O)[O-])n1-c1ccc(C2CC2)c2ccccc12.[Na+] [Compound 1e, Sodium 3-(4-(4-cyclopropylnaphth-1-yl)-5-methoxy-4H-1,2,4-triazol-3-yl)propionate] | 133 °C (dec.) | > 100 µM | 
6 | CCOc1nnc(CCC(=O)[O-])n1-c1ccc(C2CC2)c2ccccc12.[Na+] [Compound 1f, Sodium 3-(4-(4-cyclopropylnaphth-1-yl)-5-ethoxy-4H-1,2,4-triazol-3-yl)propionate] | 101.5 °C (dec.) | 9.1 ± 1.2 µM | 
7 | O=C([O-])CCc1nnc(Br)n1-c1cccc2ccccc12.[Na+] [Compound 1g, Sodium 3-(5-bromo-4-(naphth-1-yl)-4H-1,2,4-triazol-3-yl)propionate] | 182 to 184 °C | 10.5 ± 1.4 µM | 
8 | Cc1ccc(-n2c(Br)nnc2CCC(=O)[O-])c2ccccc12.[Na+] [Compound 1h, Sodium 3-(5-bromo-4-(4-methylnaphth-1-yl)-4H-1,2,4-triazol-3-yl)propionate] | 155 °C (dec.) | 12.6 ± 1.6 µM | 
9 | CCc1ccc(-n2c(Br)nnc2CCC(=O)[O-])c2ccccc12.[Na+] [Compound 1i, Sodium 3-(5-bromo-4-(4-ethylnaphth-1-yl)-4H-1,2,4-triazol-3-yl)propionate] | 198 °C (dec.) | 8.4 ± 0.98 µM | 

Now from value to compound:

Row | melting point | IC50 (human URAT1) | Fold more potent than parent lesinurad (URAT1 inhibition) (human URAT1) | SMILES
10 | 183 °C (dec.) | 8.3 ± 1.1 µM |  | CCCc1ccc(-n2c(Br)nnc2CCC(=O)[O-])c2ccccc12.[Na+] [Compound 1j, Sodium 3-(5-bromo-4-(4-n-propylnaphth-1-yl)-4H-1,2,4-triazol-3-yl)propionate]
11 | 194 °C (dec.) | 1.1 ± 0.21 µM |  | CC(C)c1ccc(-n2c(Br)nnc2CCC(=O)[O-])c2ccccc12.[Na+] [Compound 1k, Sodium 3-(5-bromo-4-(4-isopropylnaphth-1-yl)-4H-1,2,4-triazol-3-yl)propionate]
12 | 211 °C (dec.) | 36.6 ± 5.3 µM |  | COc1ccc(-n2c(Br)nnc2CCC(=O)[O-])c2ccccc12.[Na+] [Compound 1l, Sodium 3-(5-bromo-4-(4-methoxynaphth-1-yl)-4H-1,2,4-triazol-3-yl)propionate]
13 | 194 °C (dec.) | 11.2 ± 1.3 µM |  | CCOc1ccc(-n2c(Br)nnc2CCC(=O)[O-])c2ccccc12.[Na+] [Compound 1m, Sodium 3-(5-bromo-4-(4-ethoxynaphth-1-yl)-4H-1,2,4-triazol-3-yl)propionate]
14 | 204 °C (dec.) | 0.85 ± 0.12 µM |  | O=C([O-])CCc1nnc(Br)n1-c1ccc(Br)c2ccccc12.[Na+] [Compound 1n, Sodium 3-(5-bromo-4-(4-bromonaphth-1-yl)-4H-1,2,4-triazol-3-yl)propionate]
15 |  | 0.61 ± 0.07 µM |  | O=C(O)CCc1nnc(Br)n1Cc1ccc(Br)c2ccccc12 [Compound 1o, Sodium 3-(5-bromo-4-((4-bromonaphth-1-yl)methyl)-4H-1,2,4-triazol-3-yl)propionate]
16 | 167 °C (dec.) | 34.7 ± 4.9 µM |  | O=C([O-])CCc1nnc(Br)n1CCc1ccc(Br)c2ccccc12.[Na+] [Compound 1p, Sodium 3-(5-bromo-4-(2-(4-bromonaphth-1-yl)ethyl)-4H-1,2,4-triazol-3-yl)propionate]
17 |  | 0.23 ± 0.05 µM | 31 fold | O=C([O-])CCCc1nnc(Br)n1Cc1ccc(Br)c2ccccc12.[Na+] [Compound 1q, Sodium 4-(5-bromo-4-((4-bromonaphth-1-yl)methyl)-4H-1,2,4-triazol-3-yl)butanoate]
18 | 146 to 149 °C | 1.24 ± 0.17 µM |  | O=C([O-])CCCCc1nnc(Br)n1Cc1ccc(Br)c2ccccc12.[Na+] [Compound 1r, Sodium 5-(5-bromo-4-((4-bromonaphth-1-yl)methyl)-4H-1,2,4-triazol-3-yl)pentanoate]
